Results published in paper PMC6112376, “Comprehensive Analyses and Prioritization of Tox21 10K Chemicals Affecting Mitochondrial Function by in-Depth Mechanistic Studies” (Environmental Health Perspectives, 2018).
Where two headings read alike, the source gives them in different places.

Experiments:
[1] = system: Caenorhabditis elegans strain PE255; assay: In vivo C. elegans ATP status assay; conditions: for minimal effective concentration: Caenorhabditis elegans, read-out: LEC LUM: lowest effect concentration for luminescence, a measure of nematode ATP content
[2] = system: HepG2 cells; assay: ROS-Glo hydrogen peroxide (ROS) assay; assay type: cell-based, human
[3] = system: Nrf2/ARE (ARE-bla HepG2 cells); assay: ARE β-lactamase reporter gene assay; assay type: cell-based, human; conditions: 16 h incubation, mean±SD of three experiments
[4] = system: rat primary hepatocytes
[5] = system: Caenorhabditis elegans strain PE255; conditions: PE255 [sur-5::luc+::gfp; rol-6(su1006)], Caenorhabditis elegans, in vivo
[6] = system: Caenorhabditis elegans (Bristol N2); assay: C. elegans larval development and growth assay; conditions: for minimal effective concentration: Caenorhabditis elegans, read-out: LEC EXT: lowest effect concentration for extinction, a measure of nematode size
[7] = system: HeLa cells expressing YFP-Parkin; assay: Parkin translocation assay; assay type: cell-based, human
[8] = system: rat primary hepatocytes; assay: MMP assay in rat primary hepatocytes; conditions: Rattus norvegicus, Hepatocyte
[9] = system: p53 (p53-bla HCT-116 cells); assay: p53 β-lactamase reporter gene assay; assay type: cell-based, human; conditions: Homo sapiens; 16 h incubation; mean±SD of three experiments
[10] = system: HepG2 cells; conditions: cited from earlier work
[11] = system: hNSC; assay: MMP assay in human neural stem cells (hNSC); assay type: cell-based; conditions: Homo sapiens, Neural stem cell, 1 h, read-out: hNSC IC50 (MMP)
[12] = system: HepG2 cells; assay: Intracellular ATP content (cell viability) assay; assay type: cell-based, human; conditions: Homo sapiens, HepG2, 40 h
[13] = system: HepG2 cells; assay: cells; conditions: Homo sapiens; for Emax: HepG2, read-out: MMP assays efficacy (%) HepG2
[14] = system: isolated rat liver mitochondria; assay: Oxygen consumption, Clark-type oxygen electrode; assay type: biochemical
[15] = system: mitochondrial respiratory chain complex V; assay type: biochemical, rat; conditions: at 20μM
[16] = system: mitochondrial respiratory chain complex I; assay type: biochemical, rat
[17] = system: mitochondrial respiratory chain complex IV; assay type: biochemical, rat
[18] = molecular target: T1, mitochondrial respiratory chain complex II (Rattus norvegicus, UniProt P21913+Q641Z9+Q6PCT8+Q920L2); assay: Respiratory chain complex II activity; assay type: biochemical; conditions: at 0.8μM; mean±SD of three experiments
T1 construct: Submitochondrial particles were prepared by subjecting the intact rat mitochondria, isolated as described above, to three successive freeze–thaw cycles; from tissue; host or cells: rat liver mitochondria (submitochondrial particles)

[19] = system: Caenorhabditis elegans (Bristol N2); conditions: Bristol N2 (wild type), Caenorhabditis elegans, in vivo
[20] = system: mitochondrial respiratory chain complex III; assay type: biochemical, rat
[21] = 1 h, read-out: Rat hepatocytes IC50 (MMP)
[22] = read-out: MMP assays IC50 (µM) Rat Hepatocytes
[23] = read-out: ATP (HepG2, galactose) IC50
[24] = read-out: ATP (HepG2, glucose) IC50
[25] = HepG2, 1 h, read-out: HepG2 IC50 Galactose (MMP)
[26] = HepG2, 1 h, read-out: HepG2 IC50 Glucose (MMP)
[27] = HepG2, read-out: MMP assays IC50 (µM) HepG2

T1 sequence (Q920L2 35-656): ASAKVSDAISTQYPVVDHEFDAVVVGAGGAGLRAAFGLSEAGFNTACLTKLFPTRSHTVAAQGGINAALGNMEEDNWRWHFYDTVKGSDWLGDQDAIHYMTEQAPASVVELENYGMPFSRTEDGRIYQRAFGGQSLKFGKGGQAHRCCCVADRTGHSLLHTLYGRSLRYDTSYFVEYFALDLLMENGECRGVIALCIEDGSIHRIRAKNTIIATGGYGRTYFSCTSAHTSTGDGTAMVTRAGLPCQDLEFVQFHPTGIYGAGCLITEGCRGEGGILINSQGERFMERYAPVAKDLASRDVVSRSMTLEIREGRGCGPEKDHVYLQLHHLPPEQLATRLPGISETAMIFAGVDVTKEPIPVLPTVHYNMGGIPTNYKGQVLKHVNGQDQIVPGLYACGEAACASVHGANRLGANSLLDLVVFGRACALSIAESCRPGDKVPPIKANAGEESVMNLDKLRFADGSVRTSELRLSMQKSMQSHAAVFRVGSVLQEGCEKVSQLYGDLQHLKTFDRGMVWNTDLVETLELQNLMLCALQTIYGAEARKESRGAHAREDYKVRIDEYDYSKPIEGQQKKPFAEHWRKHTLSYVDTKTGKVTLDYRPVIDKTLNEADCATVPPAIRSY
T1 sequence (P21913 31-282): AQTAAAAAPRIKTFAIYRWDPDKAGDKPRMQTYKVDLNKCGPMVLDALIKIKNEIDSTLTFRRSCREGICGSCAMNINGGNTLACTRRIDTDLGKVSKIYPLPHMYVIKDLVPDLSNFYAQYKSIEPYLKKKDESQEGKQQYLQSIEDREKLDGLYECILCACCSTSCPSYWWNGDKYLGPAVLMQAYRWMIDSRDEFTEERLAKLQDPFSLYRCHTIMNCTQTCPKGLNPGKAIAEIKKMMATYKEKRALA
T1 sequence (Q641Z9 1-169): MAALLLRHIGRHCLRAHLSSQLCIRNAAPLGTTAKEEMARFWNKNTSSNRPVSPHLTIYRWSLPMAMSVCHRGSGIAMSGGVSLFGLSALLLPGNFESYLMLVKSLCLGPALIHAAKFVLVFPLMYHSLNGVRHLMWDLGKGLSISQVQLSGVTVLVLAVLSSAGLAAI
T1 sequence (Q6PCT8 57-159): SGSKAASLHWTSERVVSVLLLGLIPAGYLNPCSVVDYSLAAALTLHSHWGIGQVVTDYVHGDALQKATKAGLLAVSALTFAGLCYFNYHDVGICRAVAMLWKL

SMILES: Nc1ccc(N)c2c1C(=O)c1ccccc1C2=O [1,4-Diaminoanthraquinone]
- LUM: mean difference in luminescence (ATP content) relative to plate controls ([1]; 0.5 µM): 0.03036
- LUM: mean difference in luminescence (ATP content) relative to plate controls ([1]; 1 µM): 0.08336
- LUM: mean difference in luminescence (ATP content) relative to plate controls ([1]; 5 µM): 0.4462
- LUM: mean difference in luminescence (ATP content) relative to plate controls ([1]; 10 µM): 0.9963
- LUM: mean difference in luminescence (ATP content) relative to plate controls ([1]; 25 µM): 1.526
- LUM: mean difference in luminescence (ATP content) relative to plate controls ([1]; 50 µM): 1.59
- LUM: mean difference in luminescence (ATP content) relative to plate controls ([1]; 75 µM): 2.063
- LUM: mean difference in luminescence (ATP content) relative to plate controls ([1]; 100 µM): 2.457
- minimal effective concentration [1]: 5 µM
- ROS (HepG2) EC50 [2]: Inactive
- EC50 ([3]; Homo sapiens, HepG2, read-out: ARE (HepG2) EC50): 22.9 ± 27.4 µM
- MMP assays efficacy (%) Rat Hepatocytes [4]: -93±8%
- Rat hepatocytes (efficacy) (MMP) [4]: 3.79±1.62 ( −118±24.7 ) %
- LEC (lowest effect concentration), ATP assay [5]: ≤ 10 µM
- EXT: mean difference in nematode size relative to plate controls ([6]; 0.5 µM): 0.03102
- EXT: mean difference in nematode size relative to plate controls ([6]; 1 µM): 0.01427
- EXT: mean difference in nematode size relative to plate controls ([6]; 5 µM): 0.05881
- EXT: mean difference in nematode size relative to plate controls ([6]; 10 µM): -0.04953
- EXT: mean difference in nematode size relative to plate controls ([6]; 25 µM): 0.1095
- EXT: mean difference in nematode size relative to plate controls ([6]; 50 µM): 0.2596
- EXT: mean difference in nematode size relative to plate controls ([6]; 75 µM): 0.3422
- EXT: mean difference in nematode size relative to plate controls ([6]; 100 µM): 0.4149
- minimal effective concentration [6]: 25 µM
- Parkin recruitment [7]: Inactive
- IC50 [8, 21]: 3.79 µM
- IC50 [8, 22]: 1.24 ± 0.76 µM
- EC50 [9]: 35.7 ± 2.41 µM
- MMP assays efficacy (%) qHTS-HepG2 [10]: -82±13%
- IC50 ([10]; read-out: MMP assays IC50 (µM) qHTS-HepG2): 0.03 ± 0.01 µM
- IC50 [11]: 0.15 µM
- IC50 [12, 23]: 22.3 µM
- IC50 [12, 24]: 24.7 µM
- IC50 [13, 25]: 1.13 µM
- IC50 [13, 26]: 0.77 µM
- IC50 [13, 27]: 0.22 µM
- Emax [13]: 81%
- Potential Mechanism [14]: Inactive
- I-ADP, % of control (O2 consumption rate) ([14]; 20 µM): 89 (44.1) % of control
- I-sub, % of control (O2 consumption rate) ([14]; 20 µM): 103 (14.2) % of control
- II-ADP, % of control (O2 consumption rate) ([14]; 20 µM): 90 (80.2) % of control
- II-sub, % of control (O2 consumption rate) ([14]; 20 µM): 100 (27.1) % of control
- I-ADP, % of control (O2 consumption rate) ([14]; 100 µM): 82 (23.4) % of control
- I-sub, % of control (O2 consumption rate) ([14]; 100 µM): 95 (11.4) % of control
- II-ADP, % of control (O2 consumption rate) ([14]; 100 µM): 97 (35.2) % of control
- II-sub, % of control (O2 consumption rate) ([14]; 100 µM): 95 (14.1) % of control

SMILES: O=C(Nc1ccc(Oc2ccc(Cl)cc2)c(Cl)c1)c1cc(I)cc(I)c1O [Rafoxanide, reference compound]
- LUM: mean difference in luminescence (ATP content) relative to plate controls ([1]; 0.5 µM): 0.09174
- LUM: mean difference in luminescence (ATP content) relative to plate controls ([1]; 1 µM): -0.0514
- LUM: mean difference in luminescence (ATP content) relative to plate controls ([1]; 5 µM): 0.4289
- LUM: mean difference in luminescence (ATP content) relative to plate controls ([1]; 10 µM): 0.2032
- LUM: mean difference in luminescence (ATP content) relative to plate controls ([1]; 25 µM): 0.5878
- LUM: mean difference in luminescence (ATP content) relative to plate controls ([1]; 50 µM): 0.4453
- LUM: mean difference in luminescence (ATP content) relative to plate controls ([1]; 75 µM): 0.5488
- LUM: mean difference in luminescence (ATP content) relative to plate controls ([1]; 100 µM): 0.6986
- minimal effective concentration [1]: 75 µM
- EC50 ([2]; Homo sapiens, HepG2, 2 h, read-out: ROS (HepG2) EC50): 26.5 µM
- ARE (HepG2) EC50 [3]: Inactive
- MMP assays efficacy (%) Rat Hepatocytes [4]: -91±18%
- Rat hepatocytes (efficacy) (MMP) [4]: 4.50±0.81 ( −72.1±10.3 ) %
- Complex V % inhibition [15]: 40.1±1.87 at 20μM %
- Complex I % inhibition (activity call) [16]: Inactive
- EXT: mean difference in nematode size relative to plate controls ([6]; 0.5 µM): -0.03197
- EXT: mean difference in nematode size relative to plate controls ([6]; 1 µM): 0.04544
- EXT: mean difference in nematode size relative to plate controls ([6]; 5 µM): 0.3092
- EXT: mean difference in nematode size relative to plate controls ([6]; 10 µM): 0.3633
- EXT: mean difference in nematode size relative to plate controls ([6]; 25 µM): 1.242
- EXT: mean difference in nematode size relative to plate controls ([6]; 50 µM): 1.69
- EXT: mean difference in nematode size relative to plate controls ([6]; 75 µM): 0.8224
- EXT: mean difference in nematode size relative to plate controls ([6]; 100 µM): 0.8924
- minimal effective concentration [6]: 2.5 µM
- Parkin recruitment [7]: Active
- IC50 [8, 21]: 4.5 µM
- IC50 [8, 22]: 1.86 ± 0.83 µM
- Complex IV % inhibition (activity call) [17]: Inactive
- EC50 [9]: 9.11 ± 3.81 µM
- MMP assays efficacy (%) qHTS-HepG2 [10]: -110±8%
- IC50 ([10]; read-out: MMP assays IC50 (µM), qHTS-HepG2): 3.27 ± 1.76 µM
- IC50 [11]: 10.3 µM
- IC50 [12, 23]: 54.1 µM
- IC50 [12, 24]: 46.7 µM
- inhibition at 0.8 µM [18]: 44.4 ± 6.56%
- IC50 [13, 25]: 18.6 µM
- IC50 [13, 26]: 20.9 µM
- IC50 [13, 27]: 1.23 µM
- Emax [13]: 119%
- Potential Mechanism [14]: Uncoupler + inhibitor
- I-ADP, % of control (O2 consumption rate) ([14]; 0.0064 µM): 93 (51.1) % of control
- I-sub, % of control (O2 consumption rate) ([14]; 0.0064 µM): 94 (12.3) % of control
- II-ADP, % of control (O2 consumption rate) ([14]; 0.0064 µM): 100 (88.4) % of control
- II-sub, % of control (O2 consumption rate) ([14]; 0.0064 µM): 99 (24.3) % of control
- I-ADP, % of control (O2 consumption rate) ([14]; 0.032 µM): 90 (41.4) % of control
- I-sub, % of control (O2 consumption rate) ([14]; 0.032 µM): 118 (13.2) % of control
- II-ADP, % of control (O2 consumption rate) ([14]; 0.032 µM): 70 (52.6) % of control
- II-sub, % of control (O2 consumption rate) ([14]; 0.032 µM): 97 (20.0) % of control
- I-ADP, % of control (O2 consumption rate) ([14]; 0.16 µM): 105 (48.3) % of control
- I-sub, % of control (O2 consumption rate) ([14]; 0.16 µM): 163 (18.3) % of control
- II-ADP, % of control (O2 consumption rate) ([14]; 0.16 µM): 63 (47.1) % of control
- II-sub, % of control (O2 consumption rate) ([14]; 0.16 µM): 116 (23.9) % of control
- I-ADP, % of control (O2 consumption rate) ([14]; 0.8 µM): 121 (55.6) % of control
- I-sub, % of control (O2 consumption rate) ([14]; 0.8 µM): 379 (42.5) % of control
- II-ADP, % of control (O2 consumption rate) ([14]; 0.8 µM): 45 (33.6) % of control
- II-sub, % of control (O2 consumption rate) ([14]; 0.8 µM): 137 (28.2) % of control
- I-ADP, % of control (O2 consumption rate) ([14]; 4 µM): 95 (43.7) % of control
- I-sub, % of control (O2 consumption rate) ([14]; 4 µM): 399 (44.7) % of control
- II-ADP, % of control (O2 consumption rate) ([14]; 4 µM): 23 (17.4) % of control
- II-sub, % of control (O2 consumption rate) ([14]; 4 µM): 88 (18.1) % of control
- I-ADP, % of control (O2 consumption rate) ([14]; 20 µM): 15 (7.1) % of control
- I-sub, % of control (O2 consumption rate) ([14]; 20 µM): 116 (13.0) % of control
- II-ADP, % of control (O2 consumption rate) ([14]; 20 µM): 15 (11.3) % of control
- II-sub, % of control (O2 consumption rate) ([14]; 20 µM): 55 (11.4) % of control
- LEC (lowest effect concentration), larval growth assay [19]: ≤ 10 µM
- Complex III % inhibition (activity call) [20]: Inactive
